{"source": "patent US20180353565A1", "about": "“PHARMACEUTICAL FORMULATIONS AND THEIR USE FOR THE TREATMENT OF RETINITIS PIGMENTOSA” (KALEYDE PHARMACEUTICALS AG, priority 2016, published 2018)", "key": {"[1]": {"assay": "Tissue distribution at Tmax after single subcutaneous administration (LC-MS)", "type": "in vivo, Sprague-Dawley rats", "details": "at Tmax after 16.6 mg/kg s.c., rat", "description": "(§1) 10 Male Sprague-Dawley rats were used. The rats were divided into two groups of 5 for determination of plasma pharmacokinetics and tissue distribution, by single subcutaneous administration at the dose of 16.6 mg/kg in a volume of 1 mL/kg. Blood samples were taken after 0.25, 0.5, 1, 2, 4, 6, 8 and 24 hours; subsequently, in the second group of rats, tissue samples were taken at Tmax. The kinetic equation, Cmax, Tmax, plasma half-life and AUC were determined. The concentrations were measured by LC-MS.\nAs will be seen, the kidney is the organ with the highest values compared with the other tissues. However, in the eyes, which represent the target tissue, the peptide is present with a tissue plasma ratio of about 5."}, "[2]": {"system": "mice with oxygen-induced retinopathy", "details": "cited from earlier work"}, "[3]": {"system": "RCS/Kyo rat (Royal College of Surgeons rat)", "assay": "Efficacy in RCS/KYO rats by intravitreal or subcutaneous administration (retinal and ONL thickness under the microscope)", "type": "in vivo", "details": "for Retinal thickness % of control / Thickness of ONL % of control / Thickness of ONL (outer nuclear layer): age 49 days; for Retinal thickness: measured at age 49 days", "source_text": "The RCS/Kyo rat (Royal College of Surgeons rat) represents the most commonly used model in the study of this eye disease. RCS rats present retinal degeneration that makes them the ideal model for the study of this disease. […] The epithelial cells of the retina in these animals are unable to ingest the […] photoreceptor cells, and those photoreceptors therefore die.\n45 male and female RCS/Kyo rats, aged 14/21 days, were employed, using the tetrapeptide Ac-Arg-Aib-Arg-α(Me)Phe-NH2, formulated as reported in example 1A, at the concentration of 1.2 mg/mL for intravitreal injection, or 7.6 mg/mL for subcutaneous injection.\nThe treatment regimen used is set out below:\nAfter euthanasia of the rats at the age of 49 days, the thickness of the retina in the various groups was measured under the microscope:\nThe thickness of the outer layer of granules (outer nuclear layer, ONL, cell body of cones and rods) was also measured."}, "[4]": {"assay": "Plasma pharmacokinetics after single subcutaneous administration (LC-MS)", "type": "in vivo, Sprague-Dawley rats", "details": "Dose 16.6 mg/kg s.c.", "description": "as §1"}, "[5]": {"details": "intravitreal injection, OIR mice"}, "[6]": {"details": "group S-ivt-sd-t: intravitreal, therapeutic, single dose 4 μg at day 22"}, "[7]": {"details": "group S-sc-rd-p: subcutaneous, preventive, 1800 μg from day 14, 6 times a week for 5 weeks"}, "[8]": {"details": "group S-sc-rd-t: subcutaneous, therapeutic, 1800 μg from day 22, 6 times a week for 4 weeks"}, "[9]": {"details": "male, Sprague-Dawley, sc, rat plasma"}}, "note": "Where a SMILES comes first, the peptide text is derived from it. [ ]: non-standard residue; d: D form. αMeF = C[C@](N)(Cc1ccccc1)C(=O)O; Aib = CC(C)(N)C(=O)O"}
{"smiles": "CC(=O)N[C@@H](CCCNC(=N)N)C(=O)NC(C)(C)C(=O)N[C@@H](CCCNC(=N)N)C(=O)N[C@@](C)(Cc1ccccc1)C(N)=O", "note": "[Ac-Arg-Aib-Arg-α(Me)Phe-NH2] (Ac-R[Aib]R[αMeF]-NH2)", "values": [{"measurement": "Tissue plasma ratio, eyes", "setting": "[1]", "result": "about 5"}, {"measurement": "Effect on inflammatory markers", "setting": "[2]; [5]", "result": "reducing the anti-inflammatory markers"}, {"measurement": "Effect on retinal neovascularization", "setting": "[2]; [5]", "result": "reducing retinal neovascularization"}, {"measurement": "Effect on the blood-retinal barrier", "setting": "[2]; [5]", "result": "repairing dysfunctions of the blood-retinal barrier"}, {"measurement": "Effect on the structure of the retina (words, literature)", "setting": "[2]; reported in IOVS (2015), 56(4) 2392-2407", "result": "does not modify the structure of the retina"}, {"measurement": "Effect on retinal structure", "setting": "[3]; RCS/KYO rats", "result": "restore nearly all the strongly deteriorated retinal structure"}, {"measurement": "Change of retinal thickness", "setting": "[3]; all the treated groups, preventive treatment to a lesser extent", "result": "considerable increase in retinal thickness"}, {"measurement": "Retinal thickness % of control", "setting": "[3]; [6]", "result": "110 % of control"}, {"measurement": "Thickness of ONL % of control", "setting": "[3]; [6]", "result": "134 % of control"}, {"measurement": "Thickness of ONL (outer nuclear layer)", "setting": "[3]; [6]", "result": 12.09, "unit": "μm"}, {"measurement": "Retinal thickness", "setting": "[3]; group S-ivt-sd-t: intravitreal, therapeutic, single dose 4 μg at day 22 after birth", "result": 132.08, "unit": "μm"}, {"measurement": "Retinal thickness % of control", "setting": "[3]; [7]", "result": "130 % of control"}, {"measurement": "Thickness of ONL % of control", "setting": "[3]; [7]", "result": "196 % of control"}, {"measurement": "Thickness of ONL (outer nuclear layer)", "setting": "[3]; [7]", "result": 17.64, "unit": "μm"}, {"measurement": "Retinal thickness", "setting": "[3]; [7]", "result": 155.25, "unit": "μm"}, {"measurement": "Retinal thickness % of control", "setting": "[3]; [8]", "result": "153 % of control"}, {"measurement": "Thickness of ONL % of control", "setting": "[3]; [8]", "result": "196 % of control"}, {"measurement": "Thickness of ONL (outer nuclear layer)", "setting": "[3]; [8]", "result": 17.62, "unit": "μm"}, {"measurement": "Retinal thickness", "setting": "[3]; [8]", "result": 182.67, "unit": "μm"}, {"measurement": "Change of ONL thickness", "setting": "[3]; repeated subcutaneous doses", "result": "double the thickness of the layer"}, {"measurement": "Increase of the photoreceptor layer", "setting": "[3]; single dose of 4 μg per eye", "result": 34, "unit": "%"}, {"measurement": "Kelim", "setting": "[4]; rat plasma", "result": "0.309 ± 0.029", "unit": "h⁻¹"}, {"measurement": "Tmax", "setting": "[4]; male, Sprague-Dawley, rat, plasma, sc, 16.6 mg/kg", "result": "~2", "unit": "h"}, {"measurement": "AUC(0-inf)", "setting": "[4]; [9]", "result": "39300 ± 4010", "unit": "ng·h/mL"}, {"measurement": "AUC(0-t)", "setting": "[4]; [9]", "result": "39300 ± 3990", "unit": "ng·h/mL"}, {"measurement": "Cmax", "setting": "[4]; [9]", "result": "5910 ± 1180", "unit": "ng/mL"}, {"measurement": "half-life", "setting": "[4]; [9]", "result": "135 ± 13.6", "unit": "min"}]}
